Reference: PubChem BioAssay (NCI)
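Interpolation was linear, between the two tested concentrations surrounding the appropriate level; five concentrations were tested over 48 hours in 96-well plates. GI50 marks 50% less growth. TGI: total growth inhibition.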

What was measured:
Experiment in all cases: NCI anticancer screen, dose series, 48 h
[1] = test system: NCI-H460 lung
[2] = test system: SNB-19 CNS
[3] = test system: MOLT-4 leukemia
[4] = test system: HCT-15 colon
[5] = test system: K-562 leukemia
[6] = test system: HOP-92 NSCLC
[7] = test system: HCT-116 colon
[8] = test system: T-47D breast
[9] = test system: SF-268 CNS
[10] = test system: HOP-62 NSCLC
[11] = test system: OVCAR-5 ovarian
[12] = test system: NCI-H522 lung
[13] = test system: SF-539 CNS
[14] = test system: UACC-62 melanoma
[15] = test system: IGROV1 ovarian
[16] = test system: NCI-H226 lung
[17] = test system: MCF7 breast
[18] = test system: ACHN renal
[19] = test system: MDA-MB-231 breast
[20] = test system: SK-MEL-5 melanoma
[21] = test system: A549 NSCLC
[22] = test system: TK-10 renal
[23] = test system: RPMI-8226 leukemia
[24] = test system: 786-0 renal
[25] = test system: HS 578T breast
[26] = test system: DU-145 prostate
[27] = test system: UACC-257 melanoma

`Nc1c(C(=O)N/N=C/c2ccco2)cnn1-c1ccnc2c(C(F)(F)F)cccc12` was tested, and the GI50 [1] was 48.1 µM, the TGI [1] was > 100 µM and the GI50 [2] was 40.3 µM. For the same compound, the TGI [2] was > 100 µM, the GI50 [3] was 23.9 µM and the TGI [3] was 63.5 µM. For the same compound, the GI50 [4] was 18.5 µM, the TGI [4] was 33.1 µM and the GI50 [5] was 24.2 µM. The TGI [5] was 49.1 µM, the GI50 [6] was 25.9 µM and the TGI [6] was 80.8 µM. For the same compound, the GI50 [7] was 18.2 µM, the TGI [7] was 32.2 µM and the GI50 [8] was 39.5 µM. For the same compound, the TGI [8] was > 100 µM, the GI50 [9] was 31.6 µM and the TGI [9] was 91.6 µM. The GI50 [10] was 36.5 µM, the TGI [10] was > 100 µM and the GI50 [11] was 23.3 µM. For the same compound, the TGI [11] was 61.6 µM, the GI50 [12] was 29.5 µM and the TGI [12] was > 100 µM. For the same compound, the GI50 [13] was 19.4 µM, the TGI [13] was 41.2 µM and the GI50 [14] was 35.9 µM. For the same compound, the TGI [14] was > 100 µM, the GI50 [15] was 25.4 µM and the TGI [15] was 80.1 µM. The GI50 [16] was 88.8 µM, the TGI [16] was > 100 µM and the GI50 [17] was 28 µM. The TGI [17] was 65.4 µM, the GI50 [18] was 38.6 µM and the TGI [18] was > 100 µM. For the same compound, the GI50 [19] was 17.3 µM, the TGI [19] was 38.9 µM and the GI50 [20] was 30 µM. For the same compound, the TGI [20] was > 100 µM, the GI50 [21] was > 100 µM and the TGI [21] was > 100 µM. The GI50 [22] was 55.9 µM, the TGI [22] was > 100 µM and the GI50 [23] was 19.9 µM. For the same compound, the TGI [23] was 54.2 µM, the GI50 [24] was 43.6 µM and the TGI [24] was > 100 µM. It also gave a GI50 [25] of 35.4 µM, a TGI [25] of 89.1 µM and a GI50 [26] of 18.3 µM. The TGI [26] was 36.5 µM, the GI50 [27] was 95.3 µM and the TGI [27] was > 100 µM.
